{"source": "BindingDB's records for doi:10.7270/Q2TB15DB", "about": "(Burnham Center For Chemical Genomics, 2011)"}
{"molecular_target": "T1, Endoribonuclease toxin MazF (Escherichia coli (strain K12), UniProt P0AE70)", "T1 sequence (P0AE70 whole entry)": "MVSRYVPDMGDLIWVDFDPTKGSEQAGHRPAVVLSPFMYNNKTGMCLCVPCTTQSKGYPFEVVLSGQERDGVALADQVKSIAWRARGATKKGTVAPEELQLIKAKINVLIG", "experiment": "substrate-only fluorescence increase artefacts – biochemical, single-stranded RNase substrate, counter-screen for MazEF activator project, dose response (AID 588502)", "units": {"EC50": "µM"}}
{"smiles": "CCOc1ccc(N=CCC(=O)c2ccc(OC)cc2)c([N+](=O)[O-])c1", "EC50": 6.29}
{"smiles": "O=C1N=c2ccccc2=C1NNc1ccc(F)cc1", "EC50": "> 99"}
{"smiles": "Cc1ccc(Cl)c2c1=NC(=O)C=2NNc1ccccc1", "EC50": 8.15}
{"smiles": "N#CC(C(=O)c1ccc([N+](=O)[O-])o1)c1nc2ccccc2[nH]1", "note": "(stereo not drawn)", "EC50": 5.53}
{"smiles": "Cc1oc(C)c2c(=O)ccc3c(c12)OC(=N)C(C#N)C3c1ccccc1", "note": "(stereo not drawn)", "EC50": "> 99"}
{"smiles": "CC1CC(=O)C2=C(C1)OC(=N)C(C#N)C2c1coc2ccccc2c1=O", "note": "(stereo not drawn)", "EC50": "> 99"}
{"smiles": "O=C1N=c2ccccc2=C1NNc1ccccc1F", "EC50": 31.7}
{"smiles": "O=C1Nc2ccc([N+](=O)[O-])cc2C1=NNc1ccc(F)cc1", "EC50": 20.3}
{"smiles": "Cc1ccc2nc(N3C(=O)C(=O)C(C(=O)c4ccco4)C3c3cccs3)sc2c1", "note": "(stereo not drawn)", "EC50": "> 99"}
{"smiles": "Cc1cc(O)n(-c2ccc(NCc3ccc(Cl)cc3)c([N+](=O)[O-])c2)c1O", "note": "[1-{4-[(4-chlorobenzyl)amino]-3-nitrophenyl}-3-methylpyrrolidine-2,5-dione]", "EC50": "> 99"}
{"smiles": "COc1ccc(Nc2oc3cc(=O)ccc-3cc2C(=O)NCC2CCCO2)c(OC)c1", "note": "(stereo not drawn) [2-(2,4-dimethoxyanilino)-7-oxo-N-(2-oxolanylmethyl)-1-benzopyran-3-carboxamide]", "EC50": "> 99"}
{"smiles": "CCCCOc1cccc(C2C(C(=O)c3ccc(C)o3)C(=O)C(=O)N2c2nnc(C)s2)c1", "note": "(stereo not drawn) [2-(3-butoxyphenyl)-3-(5-methylfuran-2-yl)carbonyl-1-(5-methyl-1,3,4-thiadiazol-2-yl)-4-oxidanyl-2H-pyrrol-5-one]", "EC50": 20.4}
{"smiles": "CCOc1cccc(C2C(C(=O)c3ccc(C)o3)C(=O)C(=O)N2c2nccs2)c1", "note": "(stereo not drawn) [2-(3-ethoxyphenyl)-3-(5-methylfuran-2-yl)carbonyl-4-oxidanyl-1-(1,3-thiazol-2-yl)-2H-pyrrol-5-one]", "EC50": "> 99"}
{"smiles": "Cc1[nH]c2ccccc2c1/C=C1\\N=C(c2ccc(F)cc2)OC1=O", "note": "[2-(4-fluorophenyl)-4-[(2-methyl-1H-indol-3-yl)methylene]-1,3-oxazol-5(4H)-one]", "EC50": 55.9}
{"smiles": "Cc1nnc(N2C(=O)C(=O)C(C(=O)c3ccco3)C2c2ccc(C(C)(C)C)cc2)s1", "note": "(stereo not drawn) [2-(4-tert-butylphenyl)-3-(furan-2-carbonyl)-4-hydroxy-1-(5-methyl-1,3,4-thiadiazol-2-yl)-2H-pyrrol-5-one]", "EC50": 19.7}
{"smiles": "O=[N+]([O-])c1ccc(N=NCc2ccccc2)c(F)c1", "note": "[2-fluoranyl-4-nitro-N-[(phenylmethylidene)amino]aniline]", "EC50": 27.2}
{"smiles": "O=C1C(=O)N(c2nccs2)C(c2ccccc2)C1C(=O)c1cc2ccccc2o1", "note": "(stereo not drawn) [3-(1-benzofuran-2-carbonyl)-4-hydroxy-2-phenyl-1-(1,3-thiazol-2-yl)-2H-pyrrol-5-one]", "EC50": "> 99"}
{"smiles": "C=CCOc1cccc(C2C(C(=O)c3ccc(C)o3)C(=O)C(=O)N2c2nccs2)c1", "note": "(stereo not drawn) [3-(5-methylfuran-2-yl)carbonyl-4-oxidanyl-2-(3-prop-2-enoxyphenyl)-1-(1,3-thiazol-2-yl)-2H-pyrrol-5-one]", "EC50": "> 99"}
{"smiles": "CSc1ccc(C2C(C(=O)c3ccco3)C(=O)C(=O)N2c2nnc(SC)s2)cc1", "note": "(stereo not drawn) [3-(furan-2-carbonyl)-4-hydroxy-2-(4-methylsulfanylphenyl)-1-(5-methylsulfanyl-1,3,4-thiadiazol-2-yl)-2H-pyrrol-5-one]", "EC50": "> 99"}
{"smiles": "O=C1Nc2ccccc2C1=NNc1ccccc1", "note": "[3-(phenylhydrazo)-2-indolone]", "EC50": 54.6}
{"smiles": "COc1cccc(C2=Nc3nnnn3C(c3ccc(N(C)C)cc3)C2)c1", "note": "(stereo not drawn) [4-[5-(3-methoxyphenyl)-1,7-dihydro-[1,2,3,4]tetrazolo[1,5-a]pyrimidin-7-yl]-N,N-dimethyl-aniline]", "EC50": "> 99"}
{"smiles": "N#Cc1ccc(-n2c(O)c3[nH][nH]c(C(=O)c4ccc5ccccc5n4)c-3c2=O)cc1", "note": "[4-[(3aS,6aS)-4,6-dioxo-3-[oxo(2-quinolinyl)methyl]-3a,6a-dihydro-1H-pyrrolo[3,4-c]pyrazol-5-yl]benzonitrile]", "EC50": 0.271}
{"smiles": "Cc1ccc(N/N=C2/C(=O)Nc3ccc(F)cc32)cc1", "note": "[5-fluoro-3-[2-(4-methylphenyl)hydrazono]indolin-2-one]", "EC50": 29.9}
{"smiles": "O=c1cc2oc(O)c3cc(O)c(O)c(O)c3c-2oc1=O", "note": "[6,8,9,10-tetrahydroxypyran[3,2-c]isochromene-2,3-quinone]", "EC50": "> 99"}
{"smiles": "COCc1n[nH]c2c1C(c1cc(OC)c(O)c(OC)c1)C(C#N)C(=N)O2", "note": "(stereo not drawn) [6-azanyl-4-(3,5-dimethoxy-4-oxidanyl-phenyl)-3-(methoxymethyl)-2,4-dihydropyrano[2,3-c]pyrazole-5-carbonitrile]", "EC50": "> 99"}
{"smiles": "Cn1c(C(C#N)C(=O)COc2ccc3ccccc3c2)nc2ccccc21", "note": "(stereo not drawn) [(2E)-2-(3-methyl-1H-benzimidazol-2-ylidene)-4-(2-naphthalenyloxy)-3-oxobutanenitrile]", "EC50": "> 99"}
{"smiles": "COc1cc2c(cc1OC)C(CC(=O)c1ccc([N+](=O)[O-])c(C)c1)=NCC2", "note": "[(2Z)-2-(6,7-dimethoxy-3,4-dihydro-2H-isoquinolin-1-ylidene)-1-(3-methyl-4-nitrophenyl)ethanone]", "EC50": 43.8}
{"smiles": "O=C1N=c2ccccc2=C1NNc1cccc(Cl)c1", "note": "[(3E)-1H-indole-2,3-dione 3-[(3-chlorophenyl)hydrazone]]", "EC50": "> 99"}
{"smiles": "CCCCN1C(=O)C(=NNc2ccccc2O)c2ccccc21", "note": "[(3Z)-1-butyl-3-[(2-hydroxyphenyl)hydrazinylidene]indol-2-one]", "EC50": 69.5}
{"smiles": "CCCN1C(=O)C(=NNc2ccc3ccccc3n2)c2ccccc21", "note": "[(3Z)-1-propyl-3-(2-quinolinylhydrazinylidene)-2-indolone]", "EC50": "> 99"}
{"smiles": "Cc1ccc(NN=C2C(=O)N(CN3CCOCC3)c3ccccc32)cc1", "note": "[(3Z)-3-[(4-methylphenyl)hydrazinylidene]-1-(4-morpholinylmethyl)-2-indolone]", "EC50": 50.5}
{"smiles": "O=C(c1ccc2ccccc2n1)c1[nH][nH]c2c(O)n(-c3cccc(F)c3)c(=O)c1-2", "note": "[(3aS,6aS)-5-(3-fluorophenyl)-3-[oxo(2-quinolinyl)methyl]-3a,6a-dihydro-1H-pyrrolo[3,4-c]pyrazole-4,6-dione]", "EC50": "> 99"}
{"smiles": "N=C(N)C1=CC(=O)/C(=C/C=c2ccc(=C(N)N)cc2)C=C1", "note": "[(4E)-4-[2-[4-[bis(azanyl)methylidene]cyclohexa-2,5-dien-1-ylidene]ethylidene]-3-oxidanylidene-cyclohexa-1,5-diene-1-carboximidamide;2-oxidanylethanesulfonic acid]", "EC50": "> 99"}
{"smiles": "O=C1NC(=O)N(C2CCCCC2)C(=O)C1=CCC=Nc1ccccc1", "note": "[(5Z)-5-[(E)-3-anilinoprop-2-enylidene]-1-cyclohexyl-1,3-diazinane-2,4,6-trione]", "EC50": 9.49}
{"smiles": "Clc1cccc(C(Cc2nc3ccccc3[nH]2)N=Nc2ccccc2)c1", "note": "(stereo not drawn) [MLS000374846]", "EC50": "> 99"}
{"smiles": "COc1ccc(CN=Nc2ccc([N+](=O)[O-])cc2S(=O)(=O)N2CCN(C)CC2)cc1", "note": "[MLS000553953]", "EC50": 8.43}
{"smiles": "Cc1cccc(NNC2=c3cc(F)ccc3=NC2=O)c1", "note": "[MLS000673317]", "EC50": "> 99"}
{"smiles": "O=c1[nH]c(N=NCc2ccc(F)cc2)nc2ccccc12", "note": "[MLS000700887]", "EC50": "> 99"}
{"smiles": "CCC(N=Nc1cccc(C)c1)c1cnnc(SC)n1", "note": "(stereo not drawn) [MLS000705906]", "EC50": "> 99"}
{"smiles": "C=c1[nH]n(-c2ccccc2)c(=O)c1=Cc1cc(C)n(C2CC2)c1C", "note": "[MLS001018445]", "EC50": "> 99"}
{"smiles": "CCSc1nnc(N2C(=O)C(=O)C(C(=O)c3ccco3)C2c2cccc(OC)c2)s1", "note": "(stereo not drawn) [MLS001140620]", "EC50": "> 99"}
{"smiles": "O=[N+]([O-])c1cc/c(=N\\c2ccccc2O)c2no[nH]c1-2", "note": "[MLS001206694]", "EC50": "> 99"}
{"smiles": "Oc1ccc2ccccc2c1C=Nn1c(O)csc1=S", "note": "[MLS002707175]", "EC50": "> 99"}
{"smiles": "O=[N+]([O-])c1ccc(N=NCc2ccc3c(c2)OCO3)nc1", "note": "[N-(1,3-benzodioxol-5-ylmethylideneamino)-5-nitro-pyridin-2-amine]", "EC50": "> 99"}
{"smiles": "O=[N+]([O-])c1ccc(N=NCc2cccc3ccccc23)nc1", "note": "[N-(naphthalen-1-ylmethylideneamino)-5-nitro-pyridin-2-amine]", "EC50": 45.4}
{"smiles": "CCN(CC)c1ccc(CN=Nc2ccc([N+](=O)[O-])cn2)cc1", "note": "[N-[[4-(diethylamino)phenyl]methylideneamino]-5-nitro-pyridin-2-amine]", "EC50": 70.2}
{"smiles": "Cc1ccc(C2=Nc3nnnn3C(c3ccc(N(C)C)cc3)C2)cc1", "note": "(stereo not drawn) [SMR000092467]", "EC50": "> 99"}
{"smiles": "COc1ccc(C=C2CCCC(C(=O)C(F)(F)F)C2=O)cc1", "note": "(stereo not drawn) [SMR000142699]", "EC50": 33.8}
{"smiles": "Cc1[nH]c2ccccc2c1/C=C1\\N=C(c2ccc(C(F)(F)F)cc2)OC1=O", "note": "[SMR000152363]", "EC50": "> 99"}
{"smiles": "O=C(c1ccc2ccccc2n1)c1[nH][nH]c2c(O)n(-c3cccc(C(F)(F)F)c3)c(=O)c1-2", "note": "[SMR000212847]", "EC50": "> 99"}
{"smiles": "Cc1ccc(S(=O)(=O)N[N-][C+]2CCC(C(C)(C)C)CC2)cc1[N+](=O)[O-]", "note": "[SMR000241764]", "EC50": "> 99"}
{"smiles": "COc1ccc(N=CCC(=O)c2ccc(C)cc2)cc1OC", "note": "[SMR000269732]", "EC50": 25}
{"smiles": "COc1cc(C2c3c(-c4cccs4)n[nH]c3OC(=N)C2C#N)cc(OC)c1O", "note": "(stereo not drawn) [SMR000275523]", "EC50": 13.3}
{"smiles": "CC1(C)CC(=O)C(N=Nc2cc3c(cc2[N+](=O)[O-])OCCO3)C(=O)C1", "note": "[SMR000348183]", "EC50": 29.6}
{"smiles": "O=C1N=c2ccc(Br)cc2=C1NNc1ccc(F)cc1", "note": "[SMR000564049]", "EC50": 45.8}
{"smiles": "CSc1nnc(N2C(=O)C(=O)C(C(=O)c3ccc(C)o3)C2c2ccc(C)cc2)s1", "note": "(stereo not drawn) [SMR000650392]", "EC50": "> 99"}
{"smiles": "CCN1C(=O)C(C=NN=Cc2ccccc2)c2ccc(C3=NNC(=O)CC3)cc21", "note": "(stereo not drawn) [benzaldehyde {[1-ethyl-2-oxo-6-(6-oxo-1,4,5,6-tetrahydro-3-pyridazinyl)-1,2-dihydro-3H-indol-3-ylidene]methyl}hydrazone]", "EC50": "> 99"}
{"smiles": "CCOC(=O)c1c(NC=C2C(=O)NC(=O)NC2=O)sc2c1CCC2", "note": "[ethyl 2-{[(1E)-(2,4,6-trioxohexahydropyrimidin-5-yl)methylene]amino}-5,6-dihydro-4H-cyclopenta[b]thiophene-3-carboxylate]", "EC50": "> 99"}
